Entries after “also recorded” stand apart in the source; their conditions may differ.
What was measured:
serum 5-HT = assay: Part 2 MAD biomarker: serum 5-HT change from Day 1; format: in vivo, human; details: Day 7, 200 mg fed dose group
Excerpt: (§1) Biomarkers were to be evaluated in Part 2 by measuring concentrations of serotonin (5-hydroxytryptamine [5-HT]) in serum and 5-hydroxyindoleacetic acid (5-HIAA) in plasma and urine. As well, the relationship of biomarkers to PK parameters was to be evaluated.
(§2) The biomarker analysis was to be based on the Biomarker Population (all subjects with evaluable biomarker measurements at baseline [Day 1 predose] and at least one after dosing [Day 7 or Day 14]).
(§3) Biomarker data were to be collected only in Part 2. The following biomarkers were to be analyzed: • Serum 5-HT • Plasma 5-HIAA • Urine 5-HIAA/24 hours (as measured, adjusted, estimated, and per gram creatinine)
Linear regression was to be performed using biomarker changes, absolute and relative (%), from Day 1, at predose on Day 7 or Day 14 versus AUC0-24, Cmax, and Cmin in corresponding study days. The slopes and corresponding 95% confidence intervals (CIs) were to be tabulated.
Summary statistics (mean, standard deviation [SD], median, minimum [Min], and maximum [Max]) were to be tabulated for each biomarker, by Cohort, with absolute and relative (%) changes from Day 1 predose.
The values were to be tabulated with P values testing whether the difference of changes was equal to 0.
(§4) The biomarker portion of the study was conducted in Part 2 MAD using the Biomarker Population. The biomarkers evaluated were serum 5-HT and plasma 5-HIAA, as well as urine 5-HIAA/24 hours (as measured, adjusted, estimated, and per gram creatinine). Urinary 5-HIAA was determined by a validated (21 C.F.R. 58, GLP-compliant) method using liquid chromatographic separation and tandem mass spectrometry detection.
The Biomarker Population consisted of all subjects with evaluable baseline (Day 1 predose) and at least one postdose (Day 7 or Day 14) biomarker measurements.
Biomarker data were analyzed for each KAR5585 dose separately, for all KAR5585 doses pooled, and for all placebo subjects pooled. […]

urine 5-HIAA/24 hours = assay: Part 2 MAD biomarker: urine 5-HIAA/24 hours change from Day 1; format: in vivo, human; details: Days 7 and 14, all dose groups
Excerpt: as §1, §2, §3
Linear regression was to be performed using biomarker changes, absolute and relative (%), from Day 1, at predose on Day 7 or Day 14 versus AUC0-24, Cmax, and Cmin in corresponding study days. The slopes and corresponding 95% confidence intervals (CIs) were to be tabulated. […]
as §4, with “detection. […]” for “detection.”
Biomarker data were analyzed for each KAR5585 dose separately, for all KAR5585 doses pooled, and for all placebo subjects pooled.
Urine 5 HIAA/24 hour was analyzed in 4 different manners: as measured in the 24-hour collection and (in order to correct for any collection errors) adjusted for creatinine excretion, estimated by the expected creatinine excretion for the subject (as defined in and expressed per gram creatinine. Results were similar for each of the 4 manners and are presented in this report for measured urine. Tables and figures for adjusted, estimated, and per-gram creatinine results are presented in Section 14. […]

[1] = Part 1 SAD urine pharmacokinetics (urinary excretion, renal clearance); format: in vivo, human
Description: Renal clearance of KAR5417 was calculated from the area under the plasma time concentration curve (AUC0-96) for KAR5417 and the amount of KAR5417 recovered in urine (Table 21).

[2] = Part 1 SAD plasma pharmacokinetics of KAR5585 and KAR5417 after a single oral dose of KAR5585 (fasting; fed food effect); details: for AUC0-inf Geometric Mean / AUC0-tau Geometric Mean / Cmax Geometric Mean: 400 mg KAR5585 single oral dose
Description: Food effect was to be evaluated in Part 1, Period 2. Part 2 was permitted to begin before Part 1 was completed and, in each part, the data from each dose Cohort were to be reviewed for safety before the next dose Cohort was enrolled.
Part 1 had 6 Cohorts of 12 subjects each (for a total of 72 subjects) and Part 2 had 4 Cohorts of 12 subjects each (for a total of 48 subjects). In Part 1, the 12 subjects in Cohort 3 (400 mg) were studied twice, once under fasting conditions (Period 1) and once under fed conditions (Period 2) for food-effect assessment.
Pharmacokinetic data were to be summarized descriptively.

[3] = Safety and tolerability in healthy adult subjects (Study KAR5585-101); format: in vivo, human
[4] = 100 mg to 700 mg single dose, 7-fold increase in dose
[5] = 700 mg to 2000 mg single dose, 2.86-fold increase in dose
[6] = KAR5585 100 mg single oral dose, fasted, Cohort 1
[7] = KAR5585 200 mg single oral dose, fasted, Cohort 2
[8] = KAR5585 400 mg single oral dose, fasted, Cohort 3A
[9] = KAR5585 400 mg single oral dose, fed, Cohort 3B
[10] = KAR5585 700 mg single oral dose, fasted, Cohort 4
[11] = KAR5585 1200 mg single oral dose, fasted, Cohort 5
[12] = KAR5585 2000 mg single oral dose, fasted, Cohort 6

CCOC(=O)[C@@H]1CC2(CCN(c3cc(O[C@H](c4ccc(Cl)cc4-c4ccccc4)C(F)(F)F)nc(N)n3)CC2)CN1 [KAR5585, (S)-ethyl 8-(2-amino-6-((R)-1-(5-chloro-[1,1′-biphenyl]-2-yl)-2,2,2-trifluoroethoxy)pyrimidin-4-yl)-2,8-diazaspiro[4.5]decane-3-carboxylate]
mean difference of percent changes from Day 1 in serum 5-HT compared to placebo (serum 5-HT): statistically significant
absolute and percent changes from Day 1 in creatinine-normalized urine 5-HIAA versus placebo (urine 5-HIAA/24 hours): statistically significant in favor of KAR5585
amount excreted (Ae) in urine, of the administered dose ([1]; single oral KAR5585, all dose levels): less than 0.004%
quantifiability in urine samples ([1]; single oral KAR5585, almost all subjects): could not be quantified in urine samples; also recorded: not quantifiable in urine in almost all subjects
increase in mean AUC0-24 [2, 4]: 8.7 fold
increase in mean AUC0-inf [2, 4]: 8.8 fold
increase in AUC0-24 [2, 5]: 1.86 fold
increase in AUC0-inf [2, 5]: 1.78 fold
AUC0-inf Geometric Mean ([2]; Cohort 3A (Fasting)): 288 ng·h/mL
AUC0-tau Geometric Mean ([2]; Cohort 3A (Fasting)): 176 ng·h/mL
Cmax Geometric Mean ([2]; Cohort 3A (Fasting)): 42 ng/mL
AUC0-inf Geometric Mean ([2]; Cohort 3B (Fed)): 903 ng·h/mL
AUC0-tau Geometric Mean ([2]; Cohort 3B (Fed)): 854 ng·h/mL
Cmax Geometric Mean ([2]; Cohort 3B (Fed)): 165 ng/mL
AUC0-12 (Mean) [2, 6]: 48.1 ng·h/mL
AUC0-24 (Geo. Mean) [2, 6]: 47.5 ng·h/mL
AUC0-∞ (Geo. Mean) [2, 6]: 47.5 ng·h/mL
Cmax/D Geo. Mean [2, 6]: 0.132 (ng/mL)/mg
Cmax/D Mean [2, 6]: 0.139 (ng/mL)/mg
V2/F Geo. Mean [2, 6]: 5190 L
V2/F Mean [2, 6]: 5680 L
t1 Geo. Mean [2, 6]: 1.71 h
t1 Mean [2, 6]: 1.89 h
AUC0-12 (Geo. Mean) [2, 7]: 83.3 ng·h/mL
AUC0-24 (Geo. Mean) [2, 7]: 93.4 ng·h/mL
AUC0-∞ (Geo. Mean) [2, 7]: 95.3 ng·h/mL
Cmax/D Geo. Mean [2, 7]: 0.0875 (ng/mL)/mg
Cmax/D Mean [2, 7]: 0.0961 (ng/mL)/mg
V2/F Geo. Mean [2, 7]: 9610 L
V2/F Mean [2, 7]: 10300 L
t1 Geo. Mean [2, 7]: 3.17 h
t1 Mean [2, 7]: 3.63 h
AUC0-24 (Geo. Mean) [2, 8]: 283 ng·h/mL
AUC0-∞ (Geo. Mean) [2, 8]: 288 ng·h/mL
Cmax/D Geo. Mean [2, 8]: 0.105 (ng/mL)/mg
Cmax/D Mean [2, 8]: 0.132 (ng/mL)/mg
V2/F Geo. Mean [2, 8]: 8100 L
V2/F Mean [2, 8]: 8330 L
t1 Geo. Mean [2, 8]: 4.04 h
t1 Mean [2, 8]: 4.08 h
AUC0-24 (Geo. Mean) [2, 9]: 876 ng·h/mL
AUC0-tau Geo. Mean [2, 9]: 854 ng·h/mL
AUC0-∞ (Geo. Mean) [2, 9]: 903 ng·h/mL
Cmax (Geo. Mean) [2, 9]: 165 ng/mL
Cmax/D Geo. Mean [2, 9]: 0.413 (ng/mL)/mg
Cmax/D Mean [2, 9]: 0.422 (ng/mL)/mg
V2/F Geo. Mean [2, 9]: 2730 L
V2/F Mean [2, 9]: 2780 L
t1 Geo. Mean [2, 9]: 4.26 h
t1 Mean [2, 9]: 4.45 h
AUC0-12 (Mean) [2, 10]: 392 ng·h/mL
Cmax (Geo. Mean) [2, 10]: 95.2 ng/mL
Cmax/D Geo. Mean [2, 10]: 0.136 (ng/mL)/mg
Cmax/D Mean [2, 10]: 0.142 (ng/mL)/mg
V2/F Geo. Mean [2, 10]: 8390 L
V2/F Mean [2, 10]: 9120 L
t1 Geo. Mean [2, 10]: 3.42 h
t1 Mean [2, 10]: 3.46 h
tmax (Median) [2, 10]: 1.75 h
AUC0-12 (Geo. Mean) [2, 11]: 356 ng·h/mL
AUC0-12 (Mean) [2, 11]: 402 ng·h/mL
AUC0-24 (Geo. Mean) [2, 11]: 400 ng·h/mL
AUC0-tau Mean [2, 11]: 364 ng·h/mL
AUC0-∞ (Geo. Mean) [2, 11]: 406 ng·h/mL
Cmax/D Geo. Mean [2, 11]: 0.0568 (ng/mL)/mg
Cmax/D Mean [2, 11]: 0.0692 (ng/mL)/mg
V2/F Geo. Mean [2, 11]: 14500 L
V2/F Mean [2, 11]: 16900 L
t1 Geo. Mean [2, 11]: 3.40 h
t1 Mean [2, 11]: 3.58 h
Cmax (Geo. Mean) [2, 12]: 95.1 ng/mL
Cmax (Mean) [2, 12]: 104 ng/mL
Cmax/D Geo. Mean [2, 12]: 0.0475 (ng/mL)/mg
Cmax/D Mean [2, 12]: 0.0522 (ng/mL)/mg
V2/F Geo. Mean [2, 12]: 20600 L
V2/F Mean [2, 12]: 25100 L
t1 Geo. Mean [2, 12]: 4.76 h
t1 Mean [2, 12]: 4.84 h
tmax (Median) [2, 12]: 2.00 h
time up to which concentrations remained above the LLOQ ([2]; single 100 mg KAR5585, fasting): up to 4 hours
time up to which concentrations remained above the LLOQ ([2]; single 200 mg KAR5585, fasting): up to 12 hours
time up to which concentrations remained above the LLOQ ([2]; single 400 mg KAR5585, fasting): up to 12 hours
time up to which concentrations remained above the LLOQ ([2]; single 700 mg KAR5585, fasting): up to 12 hours
time up to which concentrations remained above the LLOQ ([2]; single 1200 mg KAR5585, fasting): up to 12 hours
tolerability ([3]; 400 mg single oral dose under fed conditions, 9 healthy adult subjects): well-tolerated
tolerability throughout the trial ([3]; Part 1 and Part 2, all doses): well tolerated throughout the trial
safety and tolerability ([3]; multiple ascending oral doses 100-400 mg BID up to 14 days, 36 healthy adult subjects): safe and well-tolerated
